Each block holds one compound with its values, some of them ahead of it.
Columns and labels:
HuH7 cells [1] = test: Cell proliferation assay (cell counting) in HuH7 cells; type: cell-based; details: for Inhibitory effects on HCC proliferation as compared to inhibitor 10: 10 μM, 5 days; for Concentration sufficient to cease HCC cell proliferation: titration 10, 7.5, 5, 2.5 μM
Description: (§1) Cells were seeded and counted every 24 h for 5 days by using a Neubauer counting chamber.

HuH6 cells [2] = test: Cell proliferation assay (cell counting) in HuH6 cells; type: cell-based
Description: as §1

SRF = SRF reporter gene (5×SRE-luciferase) assay; type: cell-based; details: HuH7 cells, 24 h; for Reduction in SRF activity: 5 μM; for SRF activity (5×SRE-luciferase): 30 μM
Description: HuH7 cells were seeded in a 12-well plate and transiently transfected with 0.25 μg 5×SRE and 0.15 μg Renilla luciferase simian virus 40 (SV40) promoter reporter as an internal control. The next day, cells were treated with inhibitors, as indicated in the figure legends, and the Dual-Luciferase Reporter Assay System (Promega, Madison, Wisconsin, USA) and the BioFix Lumi-10 (Macherey-Nagel, Düren, Germany) were used. The firefly luciferase activity was normalized to the Renilla luciferase activity to compensate for divergent transfection efficiencies.

TRPM7 = TRPM7 (Mus musculus, UniProt Q923J1); test: Aequorin-based Ca2+ influx assay for TRPM7 inhibition; type: cell-based; details: for Hill slopes for TRPM7 inhibition: Ca2+ influx assay, logistic equation fits, n = 3; for TRPM7 affinity compared to NS: relative to NS8593 (Figure 1C)
Description: HEK293T cells were transfected with 2 μg TRPM7 plasmid DNA and 0.1 μg pG5A plasmid DNA. After 24 h, the cells were washed with Mg^2+-free HEPES-buffered saline (HBS) containing 140 mM NaCl, 5.4 mM KCl, 0.5 mM CaCl2, 5 mM HEPES (pH 7.4), and 10 mM glucose and resuspended in Mg^2+-free HBS. After 30 min of incubation with 5 μM coelenterazine (Biaffin) at room temperature to reconstitute the aequorin, cells were washed two times by centrifugation at 2,000 rpm for 5 min (Heraeus Pico 17 microcentrifuge, Thermo Fisher Scientific). Then, they were resuspended in Mg^2+-free HBS and plated into 96-well plates. Luminescence was detected at room temperature using a CLARIOstar microplate reader (BMG Labtech). CaCl2-containing Mg^2+-free HBS was injected in the presence or absence of the inhibitors to increase the extracellular Ca^2+ concentration to 5 mM. Cell lysis with 0.1% (v/v) Triton X-100 in the Mg^2+-free HBS was used to terminate the experiment, and total bioluminescence was measured. The analysis of the bioluminescence rates (counts/s) was done in 1-s intervals and calibrated as [Ca^2+]i values using the following equation: p[Ca^2+]i=0,332588(−log(k))+5,5593 k represents the rate of aequorin consumption.
The following equation was used to determine the IC50 values of the inhibitors: E(c)=Emin+[…]/1+c^h/IC50^h
E(c) is the functional effect at the concentration c of the inhibitor, Emin is the minimal effect, Emax is the maximal effect, IC50 is the concentration of the inhibitor that produces the half-maximal effect, and h is the Hill coefficient. GraphPad Prism 8.4.0 was used for fitting.

SK3 channels = system: SK3 channels; design: method as in Sørensen et al. 22; details: relative to NS8593 (Figure 1C); ref Sørensen et al. 22; cited from earlier work
MRTF-A = test: Immunofluorescence of MRTF-A nuclear localization; type: cell-based; details: for MRTF-A nuclear localization reduced to: HuH7 and HuH6 cells (Figures 3B and S3A)
Description: Cells were fixated by a 10-min incubation with 4% paraformaldehyde in PBS. To permeabilize the cells, 0.2% Triton X-100 in PBS was used. Blocking was done with 1% BSA in PBS for 30 min at 37°C, followed by incubation with the respective primary antibodies (Table S4) for 1 h at room temperature and the secondary Alexa Fluor 488-coupled antibody (Invitrogen) (Table S5). The nucleus was stained with DAPI (Sigma-Aldrich). Images were taken using a fluorescence microscope (Nikon).

HuH7 cells [3] = test: SA-β-Gal staining (cellular senescence) in HuH7 cells; type: cell-based; details: for Concentration that significantly increases SA-β-Gal-positive cells (senescence induction): HuH7 cells
Description: (§2) Cellular senescence of treated cells was determined using the Senescence-β-galactosidase staining kit according to the manufacturer’s instructions (Cell Signaling Technology, Danvers, MA, USA). 300 cells were counted. The ratio stained to unstained cells were used to calculate the percentage of SA-β-gal-positive cells.

HuH6 cells [4] = test: SA-β-Gal staining (cellular senescence) in HuH6 cells; type: cell-based
Description: as §2

HuH7 cells [5] = test: Matrigel invasion assay; type: cell-based; details: 20 h
Description: The cell invasion assay was performed using Corning BioCoat Matrigel Invasion Chambers (Corning, Tewksbury, MA, USA) according to the manufacturer’s instructions. 2.5 × 10^4 cells per well were seeded and incubated for 20 h at 37°C. The invaded cells were fixed with methanol, stained with crystal violet, and counted under a light microscope (Carl Zeiss, Oberkochen, Germany).

RhoA-TRPM7 interaction = target: T1, RhoA-TRPM7 interaction (Homo sapiens, UniProt Q96QT4); test: In situ proximity ligation assay for endogenous TRPM7 and RhoA; type: cell-based; details: HuH7 cells, 6 h
T1 construct: proximity ligation assay (PLA) for endogenous TRPM7 and RhoA in HuH7 cells; endogenous in cells; host or cells: HuH7
Description: The DuoLink In situ Red Starter Kit Mouse/Rabbit (Sigma-Aldrich, Merck) was used according to the manufacturer’s protocol for DuoLink In Situ Solutions (Sigma-Aldrich, Merck). Anti-TRPM7/TRPM6 (Abcam, Cambridge, UK), anti-RhoA (NewEast Bioscience, Malvern, PA, USA), anti-MRTF-A (Santa Cruz Biotechnology, Santa Cruz, CA, USA), and anti-Filamin A (Thermo Fisher Scientific, Schwerte, Germany) antibodies were used as primary antibodies for incubation (Table S4). Images were recorded with a fluorescence microscope (Nikon, Düsseldorf, Germany).

MRTF-A-GFP = test: FLIP assay, nuclear export of MRTF-A-GFP; type: cell-based; details: HuH7 cells, 5 μM, compared to control cells
Description: HuH7 cells were plated on 35-mm cell culture dishes and transfected with 200 ng MRTF-A-GFP and 800 ng pEF-FLAG plasmid DNA by using JetPrime (Polyplus, Illkirch, France). After treatment of the cells with the respective inhibitor, cells were imaged at 37°C, 5% CO2 in an Okolab Bold Line Cage Incubator using a Carl Zeiss LSM 700 confocal microscope with Axio Imager M2 and W Plan-Apochromat 63×/1.0 dipping objective. The software ZEN 2012 was used. Imaging parameters were as follows: pinhole diameter 1, resolution 256 × 256, bit depth 12, speed 7, line average 1, and zoom 2. The cytoplasm was bleached continuously starting after 3 scans with 2-s intervals using 100% laser power (488 nm/10 mW), and the nuclear fluorescence was recorded. The pre-bleach values were set to 1.

TGF-β1 = test: Immunoblotting for TGF-β1; type: cell-based; details: HuH7 cells, 5 μM
Description: (§3) Proteins were denatured by boiling in Laemmli buffer at 95°C. According to their molecular weight, the proteins were separated by SDS-PAGE for 2 h at 100 V using the Bio-Rad Western Blot System (Bio-Rad, Hercules, California, USA) and the power supply peQPOWER 300 (Peqlab Biotechnology, Erlangen, Germany). The proteins were then transferred onto a polyvinylidene fluoride membrane (Merck, Darmstadt, Germany), which was activated in 100% methanol and equilibrated in a transfer buffer. The transfer was done at 350 mA for approximately 2 h. To avoid non-specific protein binding, the membrane was blocked with 5% milk powder in TBS-T. Afterward, the membrane was incubated over night at 4°C with the primary (Table S2) and the respective secondary antibodies for 1 h at room temperature (Table S3). Both was done with gentle shaking. The proteins were detected via chemiluminescence in a luminescent imager (ChemiDoc Imaging System, Bio-Rad).

TSPAN5 = test: Immunoblotting for TSPAN5; type: cell-based; details: HuH7 cells
Description: as §3

Sequence of TRPM7 (Q923J1 whole entry): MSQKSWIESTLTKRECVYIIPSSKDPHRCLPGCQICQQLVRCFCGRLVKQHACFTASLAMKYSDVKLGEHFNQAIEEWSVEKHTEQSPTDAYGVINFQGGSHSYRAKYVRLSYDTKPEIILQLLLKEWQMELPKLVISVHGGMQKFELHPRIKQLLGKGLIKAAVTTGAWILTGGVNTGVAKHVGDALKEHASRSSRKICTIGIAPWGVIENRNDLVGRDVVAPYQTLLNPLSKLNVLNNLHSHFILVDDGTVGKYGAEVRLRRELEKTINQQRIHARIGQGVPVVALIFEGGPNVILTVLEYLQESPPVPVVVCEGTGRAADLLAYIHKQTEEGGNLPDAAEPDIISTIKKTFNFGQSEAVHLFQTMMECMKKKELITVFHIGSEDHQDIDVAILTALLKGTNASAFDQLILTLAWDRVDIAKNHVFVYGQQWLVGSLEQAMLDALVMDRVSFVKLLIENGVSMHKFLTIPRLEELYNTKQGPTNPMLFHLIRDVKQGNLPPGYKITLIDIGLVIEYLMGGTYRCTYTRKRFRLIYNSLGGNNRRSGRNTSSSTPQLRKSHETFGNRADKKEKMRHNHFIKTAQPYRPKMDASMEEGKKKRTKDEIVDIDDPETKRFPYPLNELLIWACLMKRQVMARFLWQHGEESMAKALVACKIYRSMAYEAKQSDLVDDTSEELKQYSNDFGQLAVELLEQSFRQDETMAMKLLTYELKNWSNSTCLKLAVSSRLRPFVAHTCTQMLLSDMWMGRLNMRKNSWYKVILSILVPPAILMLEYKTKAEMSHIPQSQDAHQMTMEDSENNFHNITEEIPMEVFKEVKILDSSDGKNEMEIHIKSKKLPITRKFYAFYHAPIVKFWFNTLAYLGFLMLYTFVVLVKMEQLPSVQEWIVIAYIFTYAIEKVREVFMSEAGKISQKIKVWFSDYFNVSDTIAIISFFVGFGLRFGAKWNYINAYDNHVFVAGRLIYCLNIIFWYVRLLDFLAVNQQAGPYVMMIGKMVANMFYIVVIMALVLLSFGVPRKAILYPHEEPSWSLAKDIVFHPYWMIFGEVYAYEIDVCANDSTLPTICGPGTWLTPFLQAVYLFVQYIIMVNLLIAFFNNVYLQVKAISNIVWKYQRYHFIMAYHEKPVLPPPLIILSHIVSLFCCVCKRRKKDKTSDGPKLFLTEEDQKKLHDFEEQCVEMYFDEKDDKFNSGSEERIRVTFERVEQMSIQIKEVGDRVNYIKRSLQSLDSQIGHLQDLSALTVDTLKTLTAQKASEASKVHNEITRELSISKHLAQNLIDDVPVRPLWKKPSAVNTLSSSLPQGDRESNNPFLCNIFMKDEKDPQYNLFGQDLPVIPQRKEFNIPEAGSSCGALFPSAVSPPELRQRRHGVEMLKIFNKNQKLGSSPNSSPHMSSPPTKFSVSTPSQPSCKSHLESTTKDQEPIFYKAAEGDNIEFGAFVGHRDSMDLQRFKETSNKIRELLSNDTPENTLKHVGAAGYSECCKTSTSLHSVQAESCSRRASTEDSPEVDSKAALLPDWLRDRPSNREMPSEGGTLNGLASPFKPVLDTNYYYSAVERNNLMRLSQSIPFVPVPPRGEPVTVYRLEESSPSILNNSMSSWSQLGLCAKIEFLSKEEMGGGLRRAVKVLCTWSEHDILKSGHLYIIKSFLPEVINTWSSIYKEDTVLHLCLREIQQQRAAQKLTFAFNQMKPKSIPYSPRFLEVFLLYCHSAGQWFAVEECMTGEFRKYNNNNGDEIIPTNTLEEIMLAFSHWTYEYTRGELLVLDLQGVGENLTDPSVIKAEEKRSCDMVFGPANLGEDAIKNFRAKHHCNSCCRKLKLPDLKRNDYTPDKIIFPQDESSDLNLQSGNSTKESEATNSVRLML
T1 sequence (Q96QT4 whole entry): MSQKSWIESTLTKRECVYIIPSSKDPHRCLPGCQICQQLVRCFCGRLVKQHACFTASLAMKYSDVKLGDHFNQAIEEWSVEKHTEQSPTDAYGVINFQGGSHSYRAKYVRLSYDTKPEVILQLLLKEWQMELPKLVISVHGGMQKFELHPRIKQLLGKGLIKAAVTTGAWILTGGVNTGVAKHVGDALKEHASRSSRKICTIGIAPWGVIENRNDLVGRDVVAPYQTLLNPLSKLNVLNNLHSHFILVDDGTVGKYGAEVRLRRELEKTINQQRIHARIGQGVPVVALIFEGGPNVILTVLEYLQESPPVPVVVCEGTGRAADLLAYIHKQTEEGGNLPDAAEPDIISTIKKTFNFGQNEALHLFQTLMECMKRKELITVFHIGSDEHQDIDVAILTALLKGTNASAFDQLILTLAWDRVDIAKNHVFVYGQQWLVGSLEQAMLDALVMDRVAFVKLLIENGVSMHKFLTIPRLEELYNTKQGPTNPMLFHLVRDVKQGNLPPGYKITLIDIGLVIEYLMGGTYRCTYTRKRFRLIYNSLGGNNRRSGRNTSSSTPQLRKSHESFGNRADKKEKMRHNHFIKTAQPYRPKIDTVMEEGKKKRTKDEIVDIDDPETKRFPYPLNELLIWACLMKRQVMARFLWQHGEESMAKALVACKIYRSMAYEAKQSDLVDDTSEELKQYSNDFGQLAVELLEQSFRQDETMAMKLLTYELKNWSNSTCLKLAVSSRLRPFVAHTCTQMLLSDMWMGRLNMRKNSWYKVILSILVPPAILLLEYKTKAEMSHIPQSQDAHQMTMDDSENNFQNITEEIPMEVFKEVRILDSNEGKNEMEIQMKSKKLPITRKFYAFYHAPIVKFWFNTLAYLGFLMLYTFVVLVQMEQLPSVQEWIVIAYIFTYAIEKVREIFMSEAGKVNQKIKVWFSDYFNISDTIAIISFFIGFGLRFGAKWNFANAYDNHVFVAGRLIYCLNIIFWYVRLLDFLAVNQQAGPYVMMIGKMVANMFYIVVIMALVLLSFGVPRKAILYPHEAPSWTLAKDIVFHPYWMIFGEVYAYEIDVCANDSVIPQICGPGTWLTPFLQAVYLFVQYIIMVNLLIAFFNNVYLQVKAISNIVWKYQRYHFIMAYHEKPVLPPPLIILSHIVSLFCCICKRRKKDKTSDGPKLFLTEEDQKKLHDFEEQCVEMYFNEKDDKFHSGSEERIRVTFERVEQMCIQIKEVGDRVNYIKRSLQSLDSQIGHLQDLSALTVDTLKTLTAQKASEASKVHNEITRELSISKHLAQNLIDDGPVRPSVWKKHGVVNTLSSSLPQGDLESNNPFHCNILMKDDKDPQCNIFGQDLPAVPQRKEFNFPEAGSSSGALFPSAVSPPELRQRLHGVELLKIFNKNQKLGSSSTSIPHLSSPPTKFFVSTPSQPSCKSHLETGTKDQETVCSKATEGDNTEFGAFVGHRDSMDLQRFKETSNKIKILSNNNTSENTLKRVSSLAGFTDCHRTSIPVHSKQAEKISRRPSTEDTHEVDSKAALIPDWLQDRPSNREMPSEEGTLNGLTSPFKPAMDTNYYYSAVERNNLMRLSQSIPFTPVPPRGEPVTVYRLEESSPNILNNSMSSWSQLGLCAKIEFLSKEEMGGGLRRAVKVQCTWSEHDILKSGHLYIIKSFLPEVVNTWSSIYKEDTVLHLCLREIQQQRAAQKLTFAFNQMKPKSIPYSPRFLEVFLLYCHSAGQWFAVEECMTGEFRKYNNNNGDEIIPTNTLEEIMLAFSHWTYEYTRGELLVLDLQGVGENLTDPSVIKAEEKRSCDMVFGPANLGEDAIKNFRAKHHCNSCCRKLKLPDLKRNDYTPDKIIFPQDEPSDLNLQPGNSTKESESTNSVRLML

Compound: CC(C)c1ccc(-c2cccc(Nc3nc4ccccc4[nH]3)c2)cc1 [compound 14]
- Effect on cell proliferation (HuH7 cells [1]; 10 μM (Figure 6C)): proliferation arrest
- Inhibitory effects on HCC proliferation as compared to inhibitor 10 (HuH7 cells [1]): significantly improved
- Concentration sufficient to cease HCC cell proliferation (HuH7 cells [1]): 2.5 µM
- Effect on cell proliferation (HuH6 cells [2]; 10 µM (Figure S5A)): proliferation arrest
- Concentration at which SRF activity is significantly reduced (SRF): 2.5 µM

Compound: c1ccc(-c2cccc(Nc3nc4ccccc4[nH]3)c2)cc1 [compound 10]
- Localization of endogenous MRTF-A (MRTF-A; HuH7 cells, 5 μM, 18 h): cytoplasmic
- SRF activity decreased to (SRF; 10 μM): 25%

Compound: Fc1ccc2c(c1)C(Nc1nc3ccccc3[nH]1)CCC2 (stereo not drawn) [compound 2]
- Hill slopes for TRPM7 inhibition (TRPM7): -1.165
- TRPM7 affinity compared to NS (TRPM7): <NS
- SK3 affinity compared to NS (SK3 channels): >NS

Compound: Fc1cccc(-c2cccc(Nc3nc4ccccc4[nH]3)c2)c1 [compound 16]
- Effect on cell proliferation (HuH7 cells [1]; 10 μM (Figure 6C)): proliferation arrest
- Inhibitory effects on HCC proliferation as compared to inhibitor 10 (HuH7 cells [1]): significantly improved
- Concentration sufficient to cease HCC cell proliferation (HuH7 cells [1]): 2.5 µM
- Effect on cell proliferation (HuH6 cells [2]; 10 µM (Figure S5A)): proliferation arrest
- Concentration that significantly increases SA-β-Gal-positive cells (senescence induction) (HuH7 cells [3]): 2.5 µM
- Concentration at which SRF activity is significantly reduced (SRF): 2.5 µM

Compound: COc1ccc2c(c1)C(Nc1nc3ccccc3[nH]1)CCC2 (stereo not drawn) [compound 3]
- Hill slopes for TRPM7 inhibition (TRPM7): -1.224
- TRPM7 affinity compared to NS (TRPM7): <NS
- SK3 affinity compared to NS (SK3 channels): =NS

Compound: c1ccc2c(c1)CCCC2Nc1nc2ccccc2[nH]1 (stereo not drawn) [NS8593, reference compound]
- Hill slopes for TRPM7 inhibition (TRPM7): -1.432

Compound: c1ccc2c(c1)CCCC2Nc1nc2ccccc2[nH]1 (stereo not drawn) [compound 1]
- Hill slopes for TRPM7 inhibition (TRPM7; rNS): -1.370
- TRPM7 affinity compared to NS (TRPM7): =NS
- Concentration that significantly increases SA-β-Gal-positive cells (senescence induction) (HuH7 cells [3]): 20 µM
- Penetration of HuH7 cells into Matrigel (HuH7 cells [5]; 30 μM): strongly impaired
- RhoA-TRPM7 interaction (PLA) (RhoA-TRPM7 interaction; 30 μM): inhibited RhoA-TRPM7 interaction
- inhibition at 30 µM (MRTF-A; Homo sapiens, Huh-7, HuH7 cells, 30 μM (Figure 3B)): 50%
- SRF activity (5×SRE-luciferase) (SRF): strong decrease
- SK3 affinity compared to NS (SK3 channels): =NS

Now from value to compound, other results behind:

- Hill slopes for TRPM7 inhibition (TRPM7): -1.123
- TRPM7 affinity compared to NS (TRPM7): <NS
Compound: Cc1ccc2c(c1)C(Nc1nc3ccccc3[nH]1)CCC2 (stereo not drawn) [compound 4]
- SK3 affinity compared to NS (SK3 channels): >NS

- Hill slopes for TRPM7 inhibition (TRPM7): -1.448
- TRPM7 affinity compared to NS (TRPM7): >NS
- RhoA-TRPM7 interaction (PLA) (RhoA-TRPM7 interaction; 5 μM): inhibited RhoA-TRPM7 interaction
- SRF activity (5×SRE-luciferase) (SRF): strong decrease
Compound: Clc1cccc2c1CCCC2Nc1nc2ccccc2[nH]1 (stereo not drawn) [compound 5]
- Concentration at which HuH7 cell growth is already significantly reduced (HuH7 cells [1]; titration 2.5, 5, 7.5, 10 μM): 2.5 µM
- Concentration that significantly increases SA-β-Gal-positive cells (senescence induction) (HuH7 cells [3]): 5 µM
- Fold lower concentration than NS8593 for inducing OIS (HuH7 cells [3]; compared with NS8593): 6 fold
- Concentration that significantly increases SA-β-Gal-positive cells (senescence induction) (HuH6 cells [4]): 5 µM
- Penetration of HuH7 cells into Matrigel (HuH7 cells [5]; 5 μM): strongly impaired
- MRTF-A nuclear localization reduced to (MRTF-A; 5 μM): 12%
- MRTF-A-GFP fluorescence remaining in the nucleus after 80 s of bleaching (MRTF-A-GFP): less MRTF-A-GFP fluorescence remaining in the nucleus
- Reduction in SRF activity (SRF): 60%
- TGF-β1 expression (protein level) (TGF-β1): almost completely abolished
- TSPAN5 expression (protein level) (TSPAN5; 5 μM): almost completely abolished
- SK3 affinity compared to NS (SK3 channels): =NS

- Hill slopes for TRPM7 inhibition (TRPM7): -0.9579
- TRPM7 affinity compared to NS (TRPM7): <NS
Compound: c1ccc2[nH]c(NC3CCCc4ccncc43)nc2c1 (stereo not drawn) [compound 7]
- Effect on cell proliferation (HuH7 cells [1]; 30 μM NS, rNS, 2, 3, 7, 8, 10 μM 4, 5, 6, 5 days): decreased cell proliferation only marginally
- Effect on cell proliferation (HuH6 cells [2]; 30 µM NS8593, 2, 3, 7, 8, 10 µM 4, 5, 6, 5 days): decreased cell proliferation only marginally
- SK3 affinity compared to NS (SK3 channels): <NS

- Hill slopes for TRPM7 inhibition (TRPM7): -1.292
- TRPM7 affinity compared to NS (TRPM7): =NS
Compound: Clc1cc2c(cc1Cl)C(Nc1nc3ccccc3[nH]1)CCC2 (stereo not drawn) [compound 6]
- SK3 affinity compared to NS (SK3 channels): >NS

- Hill slopes for TRPM7 inhibition (TRPM7): -1.210
- TRPM7 affinity compared to NS (TRPM7): <NS
- RhoA-TRPM7 interaction (PLA) (RhoA-TRPM7 interaction; 30 μM): inhibited RhoA-TRPM7 interaction
- SRF activity (5×SRE-luciferase) (SRF): strong decrease
Compound: c1ccc2[nH]c(NC3CCCc4sccc43)nc2c1 (stereo not drawn) [compound 8]
- Concentration that significantly increases SA-β-Gal-positive cells (senescence induction) (HuH7 cells [3]): 20 µM
- Penetration of HuH7 cells into Matrigel (HuH7 cells [5]; 30 μM): strongly impaired
- MRTF-A nuclear localization reduced to (MRTF-A; 30 μM): 12%
- Reduction in SRF activity (SRF): 30%
- Concentration required to significantly reduce TSPAN5 expression (TSPAN5): 20 µM
- SK3 affinity compared to NS (SK3 channels): <NS

- SRF reporter gene activity (SRF; 10 μM): remained largely unchanged
Compound: c1ccc(-c2ccccc2Nc2nc3ccccc3[nH]2)cc1 [compound 9]

- SRF reporter gene activity (SRF; 10 μM): remained largely unchanged
Compound: Fc1ccc(-c2ccccc2Nc2nc3ccccc3[nH]2)cc1 [compound 13]

From publication PMC11387234, “Identification of novel inhibitors of the transcriptional coactivator MRTF-A for HCC therapy” (Molecular Therapy Oncology, 2024)
